Read-outs that look alike come from different tables or passages of the source.
Molecular target: T1, human NaPi-IIb (Homo sapiens, UniProt O95436)
T1 construct: expressed in transfected cells
T1 sequence (O95436 1-690): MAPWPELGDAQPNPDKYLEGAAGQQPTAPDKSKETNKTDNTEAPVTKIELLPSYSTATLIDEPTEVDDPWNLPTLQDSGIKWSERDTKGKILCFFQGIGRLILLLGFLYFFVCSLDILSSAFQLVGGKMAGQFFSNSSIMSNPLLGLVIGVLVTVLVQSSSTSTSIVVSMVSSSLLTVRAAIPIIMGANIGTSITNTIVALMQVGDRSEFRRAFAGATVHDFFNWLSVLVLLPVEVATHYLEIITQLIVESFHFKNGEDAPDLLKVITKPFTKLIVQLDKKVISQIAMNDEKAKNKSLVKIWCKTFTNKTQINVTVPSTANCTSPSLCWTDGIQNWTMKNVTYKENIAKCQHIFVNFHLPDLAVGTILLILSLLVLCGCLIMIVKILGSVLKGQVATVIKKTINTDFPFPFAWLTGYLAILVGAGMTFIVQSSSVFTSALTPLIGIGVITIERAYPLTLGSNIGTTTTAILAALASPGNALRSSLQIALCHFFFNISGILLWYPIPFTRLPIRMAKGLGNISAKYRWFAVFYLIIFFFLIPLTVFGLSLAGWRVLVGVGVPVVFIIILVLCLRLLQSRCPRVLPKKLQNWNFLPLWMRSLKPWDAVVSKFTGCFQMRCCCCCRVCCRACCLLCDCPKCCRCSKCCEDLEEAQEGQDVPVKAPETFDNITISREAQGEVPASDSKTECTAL
Test: Inhibitory effect on 33PO4 uptake into human NaPi-IIb-expressing CHO cells
Type: cell-based
Outline: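 Stable human NaPi-IIb CHO line (G418-selected), plated and cultured overnight; ³³PO4 added in buffer A and uptake run at room temperature. Cells washed with ice-cold buffer A, then uptake counted by liquid scintillation.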

[1] = read-out: IC50 against 33PO4 uptake into human NaPi-IIb-expressing cells

SMILES | IC50 [1] [µM] | IC50 (read-out: IC50) [µM]
CN1N(Cc2ccc(OCCN3CC(F)(F)C3)c(F)c2F)C(=O)C(C(=O)Nc2ccc(C(F)(F)F)cc2-c2cc(C(F)(F)F)ncn2)=C(O)C12CCCC2 [Example 369] | 21.8 | –
COc1cccc(-c2cc(C(F)(F)F)ccc2NC(=O)C2=C(O)[C@@]3(C)CCCN3N(Cc3ccc(C#CCCO)c(F)c3F)C2=O)c1OC [Example 134] | – | 19.7
C[C@]12CCCN1N(Cc1c(F)cc(OCCCCCOC[C@@H](O)CO)cc1F)C(=O)C(C(=O)Nc1ccc(C(F)(F)F)cc1-c1ccc(C(F)(F)F)nc1)=C2O [Example 153] | – | 6.2
COCCN(C)CCN(C)c1ccc(CN2C(=O)C(C(=O)Nc3ccc(C(F)(F)F)cc3-c3cc(C(F)(F)F)ncn3)=C(O)C3(CCCC3)N2C)c(F)c1F [Example 442] | 6.3 | –
CN1N(Cc2cccc(F)c2F)C(=O)C(C(=O)Nc2ccc(Br)c(C(F)(F)F)n2)=C(O)C12CCC2 [Example 258] | – | 2.7
CC(=O)N(C)CCN(C)CCOc1ccc(CN2C(=O)C(C(=O)Nc3ccc(C(F)(F)F)cc3-c3cc(C(F)(F)F)ncn3)=C(O)C3(CCC3)N2C)c(F)c1F [Example 354] | 26 | –
CN1[C@@H](C(C)(C)C)C(O)=C(C(=O)Nc2ccc(Br)c(C(F)(F)F)n2)C(=O)N1Cc1cccc(F)c1F [Example 242] | – | 7.8
CN1[C@@H](C(C)(C)C)C(O)=C(C(=O)Nc2ccc(Cl)cc2-c2cc(C#N)ncn2)C(=O)N1Cc1ccc(OCCN2CCOCC2)c(F)c1F [Example 272] | – | 19.5
COc1cccc(-c2cc(C(F)(F)F)ccc2NC(=O)C2=C(O)[C@@]3(C)CCCN3N(Cc3ccc(C#CCOCCCO)c(F)c3F)C2=O)c1OC [Example 127] | – | 17.6
CN1[C@@H](C(C)(C)C)C(O)=C(C(=O)Nc2ccc(C(F)(F)F)cc2-c2ccc(C(F)(F)F)nc2)C(=O)N1Cc1ccc(OCCN2CCOCC2)c(F)c1F [Example 266] | – | 11.6
C[C@]12CCCN1N(Cc1ccccc1C#N)C(=O)C(C(=O)Nc1cc(F)c(Br)c(F)c1)=C2O [Example 218] | – | 7.2
CN1N(Cc2cccc(F)c2F)C(=O)C(C(=O)Nc2ccc(C(F)(F)F)cc2-c2cc(C(F)(F)F)ncn2)=C(O)C12CCCC2 [Example 260] | – | 6.4
C[C@]12CCCN1N(Cc1ccc(F)c(Br)c1)C(=O)C(C(=O)Nc1cc(F)c(Br)c(F)c1)=C2O [Example 224] | – | 7.2
COc1cccc(-c2cc(C(F)(F)F)ccc2NC(=O)C2=C(O)[C@@]3(C)CCCN3N(Cc3ccc(C#CCOCCCCO)c(F)c3F)C2=O)c1OC [Example 123, (4aR)-1-[[2,3-Difluoro-4-[3-(4-hydroxybutoxy)prop-1-ynil]phenyl]methyl]-N-[2-(2,3-dimethoxyphenyl)-4-(trifluoromethyl)phenyl]-4-hydroxy-4a-methyl-2-oxo-6,7-dihydro-5H-pyrrolo[1,2-b]pyridazine-3-carboxamide] | – | 14.8
C[C@]12CCCN1N(Cc1ccc(C#CCN3CCCC3=O)c(F)c1F)C(=O)C(C(=O)Nc1ccc(Br)c(F)c1)=C2O [Example 131] | – | 15.3
CN1N(Cc2ccc(OCCN3CCOCC3)c(F)c2F)C(=O)C(C(=O)Nc2ccc(Br)c(C(F)(F)F)n2)=C(O)C12CCCCC2 [Example 298] | – | > 30

SMILES | IC50 [1] [µM] | IC50 (read-out: IC50) [µM]
CN1N(Cc2ccc(OC(C)(C)CN3CCOCC3)c(F)c2F)C(=O)C(C(=O)Nc2ccc(C(F)(F)F)cc2-c2cc(C(F)(F)F)ncn2)=C(O)C12CCC2 [Example 407, 6-[[2,3-Difluoro-4-(2-methyl-1-morpholin-4-ylpropan-2-yl)oxyphenyl]methyl]-9-hydroxy-5-methyl-7-oxo-N-[4-(trifluoromethyl)-2-[6-(trifluoromethyl)pyrimidin-4-yl]phenyl]-5,6-diazaspiro[3.5]non-8-ene-8-carboxamide] | 6.9 | –
CN1N(Cc2ccc(OCCN3CCN(CCO)CC3)c(F)c2F)C(=O)C(C(=O)Nc2ccc(C(F)(F)F)cc2-c2cc(C(F)(F)F)ncn2)=C(O)C12CCC2 [Example 360] | 23.1 | –
CSc1ccc(-c2cc(C(F)(F)F)ccc2NC(=O)C2=C(O)[C@@]3(C)CCCN3N(Cc3ccc(OCCN4CCOCC4)c(F)c3F)C2=O)cn1 [Example 103] | – | 11
CN1N(Cc2ccc(OCCCCCOCCO)c(F)c2F)C(=O)C(C(=O)Nc2ccc(C(F)(F)F)cc2-c2cc(C(F)(F)F)ncn2)=C(O)C12CCCC2 [Example 397] | 8.6 | –
C[C@]12CCCN1N(Cc1ccc(OCCN3CCOCC3)c(F)c1F)C(=O)C(C(=O)Nc1ccc(Cl)cc1-c1ccc(C(F)(F)F)nc1)=C2O [Example 102] | – | 10.9
C[C@]12CCCN1N(Cc1cccc(F)c1F)C(=O)C(C(=O)Nc1ccc(Br)cc1-c1ccc(Cl)nc1)=C2O [Example 122, (4aR)—N-[4-Bromo-2-(6-chloropyridin-3-yl)phenyl]-1-[(2,3-difluorophenyl)methyl]-4-hydroxy-4a-methyl-2-oxo-6,7-dihydro-5H-pyrrolo[1,2-b]pyridazine-3-carboxamide] | – | 8.6
COc1cccc(-c2cc(C(F)(F)F)ccc2NC(=O)C2=C(O)[C@@]3(C)CCCN3N(Cc3ccc(OC[C@H]4CCCO4)c(F)c3F)C2=O)c1OC [Example 159] | – | 11.4
C[C@]12CCCN1N(Cc1cccc(F)c1F)C(=O)C(C(=O)Nc1ccc(C(F)(F)F)cc1-c1ncnc(Cl)c1Cl)=C2O [Example 70] | – | 8.4
C[C@]12CCCN1N(Cc1cccc(F)c1Cl)C(=O)C(C(=O)Nc1cc(F)c(Br)c(F)c1)=C2O [Example 174] | – | 2.2
CC(C)(C)[C@H]1C(O)=C(C(=O)Nc2cc(F)c(Br)c(F)c2)C(=O)N(Cc2cccc(F)c2F)N1CC(F)(F)F [Example 248] | – | 17.6
CN1N(Cc2ccc(OCCCOC[C@H](O)CO)c(F)c2F)C(=O)C(C(=O)Nc2ccc(C(F)(F)F)cc2-c2cc(C(F)(F)F)ncn2)=C(O)C12CCCC2 [Example 392] | 15.8 | –
CN1N(Cc2cccc(F)c2F)C(=O)C(C(=O)Nc2ccc(Cl)cc2-c2cc(C(F)(F)F)ncn2)=C(O)C12CCCC2 [Example 261] | – | 7.7
CC(=O)NCCN(C)CCOc1ccc(CN2C(=O)C(C(=O)Nc3ccc(C(F)(F)F)cc3-c3cc(C(F)(F)F)ncn3)=C(O)C3(CCC3)N2C)c(F)c1F [Example 353] | 23.9 | –
C[C@]12CCCN1N(Cc1ccccc1Br)C(=O)C(C(=O)Nc1cc(F)c(Br)c(F)c1)=C2O [Example 216] | – | 8
C[C@]12CCCN1N(Cc1cccc(OC(F)F)c1)C(=O)C(C(=O)Nc1ccc(C(F)(F)F)cc1-c1cc(C(F)(F)F)ncn1)=C2O [Example 177] | – | 11.1

Other lines, results leading:

IC50 [1] [µM] | IC50 (read-out: IC50) [µM] | SMILES
– | 2 | C[C@]12CCCN1N(Cc1cccc(F)c1)C(=O)C(C(=O)Nc1ccc(C(F)(F)F)cc1-c1ccc(C(F)(F)F)nc1)=C2O [Example 206]
– | 11.9 | COc1cccc(-c2cc(C(F)(F)F)ccc2NC(=O)C2=C(O)[C@@]3(C)CCCN3N(Cc3ccc(C#CCCCO)c(F)c3F)C2=O)c1OC [Example 138]
– | 15.1 | C[C@]12CCCN1N(Cc1ccc(OCCCCCO)c(F)c1F)C(=O)C(C(=O)Nc1ccc(C(F)(F)F)cc1-c1cc(C(F)(F)F)ncn1)=C2O [Example 162]
– | 5.2 | C[C@]12CCCN1N(Cc1cccc(F)c1F)C(=O)C(C(=O)Nc1ccc(Br)cn1)=C2O [Example 78]
– | 18.3 | CN1N(Cc2ccc(OCCN3CCOCC3)c(F)c2F)C(=O)C(C(=O)Nc2ccc(Cl)cc2-c2cc(C(F)(F)F)ncn2)=C(O)C12CCCCC2 [Example 297]
– | 12.2 | C[C@]12CCCN1N(Cc1cccc(C#N)c1)C(=O)C(C(=O)Nc1cc(F)c(Br)c(F)c1)=C2O [Example 220]
– | 7 | C[C@]12CCCN1N(Cc1ccc(F)c(F)c1)C(=O)C(C(=O)Nc1ccc(C(F)(F)F)cc1-c1cc(C(F)(F)F)ncn1)=C2O [Example 214]
– | 25.2 | CN(CCO)CCOc1ccc(CN2C(=O)C(C(=O)Nc3ccc(C(F)(F)F)cc3-c3cc(C(F)(F)F)ncn3)=C(O)C3(CCC3)N2C)c(F)c1F [Example 347]
20.2 | – | CN1N(Cc2ccc(OCCN3CCN(CCOCCO)CC3)c(F)c2F)C(=O)C(C(=O)Nc2ccc(C(F)(F)F)cc2-c2cc(C(F)(F)F)ncn2)=C(O)C12CCC2 [Example 361]
– | 16.8 | Cc1c(Cl)ncnc1-c1cc(Cl)ccc1NC(=O)C1=C(O)[C@H](C(C)(C)C)N(C)N(Cc2ccc(OCCN3CCOCC3)c(F)c2F)C1=O [Example 275]
7.4 | – | CCCN(CCN(C)CCOC)c1ccc(CN2C(=O)C(C(=O)Nc3ccc(C(F)(F)F)cc3-c3cc(C(F)(F)F)ncn3)=C(O)C3(CCCC3)N2C)c(F)c1F [Example 444]
– | 9.4 | C[C@]12CCCN1N(CCCC(F)(F)F)C(=O)C(C(=O)Nc1ccc(C(F)(F)F)cc1-c1cc(C(F)(F)F)ncn1)=C2O [Example 234]
– | 19.7 | C[C@]12CCCN1N(Cc1ccc(OCCN3CCOCC3)c(Cl)c1)C(=O)C(C(=O)Nc1ccc(C(F)(F)F)cc1-c1ccc(C(F)(F)F)nc1)=C2O [Example 149, (4aR)-1-[[3-Chloro-4-(2-morpholin-4-ylethoxy)phenyl]methyl]-4-hydroxy-4a-methyl-2-oxo-N-[4-(trifluoromethyl)-2-[6-(trifluoromethyl)pyridin-3-yl]phenyl]-6,7-dihydro-5H-pyrrolo[1,2-b]pyridazine-3-carboxamide]
– | 10 | Cc1nc(NC(=O)C2=C(O)C3(CCC3)N(C)N(Cc3cccc(F)c3F)C2=O)ccc1Br [Example 259]

Source: patent publication US9499553B2 (CHUGAI SEIYAKU KABUSHIKI KAISHA, priority 2013, dated 2016)
